Earlier results, collected in patent publication US20240156726A1, “MULTI-LAYER ORAL THIN FILM” (LTS LOHMANN THERAPIE-SYSTEME AG, priority 2021, published 2024).

Conditions: compared with (R)-ketamine

CNC1(c2ccccc2Cl)CCCCC1=O (racemic) [(S)-ketamine, (S)-(±)-2-(2-chlorophenyl)-2-(methylamino)cyclohexan-1-one]
analgesic and anaesthetic potency relative to the (R) form: approximately three times higher
